For 2 compounds, MIC results are on record in patent publication US20240115654A1, “INTRAVENOUS ADMINISTRATION OF ENGINEERED ANTIMICROBIAL AMPHIPHILIC PEPTIDES” (priority 2021, published 2024).

As usually defined, the MIC is the lowest concentration found to suppress growth. Higher therefore signals a need for much substance.

Common to all, as to type: cell-based
The subject of assay [1] is Enterococcus faecalis ATCC 29212 (VSE; QC). Conditions: Enterococcus faecalis ATCC 29212 (VSE; QC). A digest of the protocol: (§1)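 CLSI broth microdilution in Mueller Hinton II broth with 0.002% polysorbate 80; peptides in 2-fold serial dilution, highest final test concentration 32 mcg/mL. Inoculum approx. 5×10^5 CFU/mL, incubated 35° C for 16 to 20 hrs. MIC taken as lowest peptide concentration preventing visible growth.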

Assay [2] deals with Enterococcus faecium ATCC 51559 (VRE). To be noted: Enterococcus faecium ATCC 51559 (VRE). A digest of the protocol:
as §1

Assay [3] relates to Escherichia coli ATCC 25922 (QC). A digest of the protocol: as §1
Assay [4] has as its system Escherichia coli ATCC 35218 (ESBL). To be noted: Escherichia coli ATCC 35218 (ESBL). An outline of the steps:
as §1

The test system of assay [5] is Escherichia coli ATCC BAA-2471 (NDM-1). To be noted: Escherichia coli ATCC BAA-2471 (NDM-1). A digest of the protocol:
as §1

Assay [6] has as its system Pseudomonas aeruginosa ATCC 27853 (non-MDR; QC). An outline of the steps: as §1
Assay [7] deals with Pseudomonas aeruginosa ATCC BAA-2109 (MDR). Conditions: Pseudomonas aeruginosa ATCC BAA-2109 (MDR). A digest of the protocol: as §1
Assay [8] relates to Staphylococcus aureus ATCC 29213 (MSSA; QC). To be noted: Staphylococcus aureus ATCC 29213 (MSSA; QC). An outline of the steps:
as §1

Assay [9] deals with Staphylococcus aureus NRS382 (USA100; HA-MRSA). A digest of the protocol:
as §1

The subject of assay [10] is Streptococcus pneumoniae ATCC 49619 (QC). To be noted: Streptococcus pneumoniae ATCC 49619 (QC). An outline of the steps:
as §1

Converted amounts (≈) assume the structure as drawn. Like-named read-outs stand apart in the source and are kept apart here. Peptide text beside a SMILES is read from it.

Consider `CC(C)[C@H](NC(=O)[C@H](Cc1c[nH]c2ccccc12)NC(=O)[C@H](CCCNC(=N)N)NC(=O)[C@H](CCCNC(=N)N)NC(=O)[C@@H](NC(=O)[C@@H](NC(=O)[C@H](CCCNC(=N)N)NC(=O)[C@@H](NC(=O)[C@@H](NC(=O)[C@H](CCCNC(=N)N)NC(=O)[C@H](CCCNC(=N)N)NC(=O)[C@H](Cc1c[nH]c2ccccc12)NC(=O)[C@@H](NC(=O)[C@H](CCCNC(=N)N)NC(=O)[C@H](CCCNC(=N)N)NC(=O)[C@@H](NC(=O)[C@H](CCCNC(=N)N)NC(=O)[C@H](CCCNC(=N)N)NC(=O)[C@@H](NC(=O)[C@H](Cc1c[nH]c2ccccc12)NC(=O)[C@H](CCCNC(=N)N)NC(=O)[C@@H](N)CCCNC(=N)N)C(C)C)C(C)C)C(C)C)C(C)C)C(C)C)C(C)C)C(C)C)C(=O)N[C@@H](CCCNC(=N)N)C(=O)N[C@@H](CCCNC(=N)N)C(N)=O` [SEQ ID NO: 1] (H-RRWVRRVRRVWRRVVRVVRRWVRR-NH2), for which the MIC stood at 8 mg/L (≈ 2.35 µM) in assay [1]; 2 mg/L (≈ 0.588 µM) in [2]; 4 mg/L (≈ 1.18 µM) in [3] (ATCC 25922); 8 mg/L (≈ 2.35 µM) in assay [4]; 2 mg/L (≈ 0.588 µM) in [5]; 8 mg/L (≈ 2.35 µM) in [6] (ATCC 27853). Moreover, the MIC in assay [7] is 4 mg/L (≈ 1.18 µM); in assay [8], 8 mg/L (≈ 2.35 µM); in assay [9] (USA100), 4 mg/L (≈ 1.18 µM); in assay [10], 16 mg/L (≈ 4.71 µM).
Take Colistin [reference compound]: the MIC is over 32 mg/L in [1]; over 32 mg/L in assay [2]; 0.12 mg/L in [3] (Escherichia coli ATCC 25922 (QC)); 0.12 mg/L in assay [4]; 0.06 mg/L in assay [5]; 0.25 mg/L in assay [6] (Pseudomonas aeruginosa ATCC 27853 (non-MDR; QC)). The MIC in [7] is 0.12 mg/L; in [8], over 32 mg/L; in assay [9] (Staphylococcus aureus NRS382 (USA100; HA-MRSA)), over 32 mg/L; in assay [10], over 32 mg/L.
